Here are results for three compounds from PMC4773988, “Structure-based Inhibitor Design for the Intrinsically Disordered Protein c-Myc” (Scientific Reports, 2016).

For data set [1] the following is noted: cited from earlier work.
A further data set is described as follows: Solubility in water. It is filed as physicochemical.

Consider JY-3-094, for which the Cell penetration result in data set [1] is given as “penetrates cells poorly”.

`O=C(NC(NC(=S)Nc1ccc(I)cc1)C(Cl)(Cl)Cl)OCc1ccccc1` (stereo not drawn) [PKUMDL-YC-1203]: the Solubility in water result in the data set “Solubility in water” is on record as “less soluble in water”.

Consider `Cc1ccccc1C(=O)NC(NC(=S)Nc1cc(Cl)cc(Cl)c1Cl)C(Cl)(Cl)Cl` (stereo not drawn) [PKUMDL-YC-1204], for which, in the data set “Solubility in water”, the Solubility in water entry is reported as “less soluble in water”.
